Patent US9114150B2, “Stable aqueous compositions comprising bioactive creatine species” (JHO INTELLECTUAL PROPERTY HOLDINGS, LLC, priority 2008, dated 2015)

Test: Stability study of aqueous solutions (0.250 mg/mL) assayed by HPLC at periodic intervals for 60 days
Assay type: physicochemical
Settings: for Creatinine in solution (HPLC assay): 0.250 mg/mL; for Prepared substance remaining in solution (HPLC assay): buffer, 0 days, 0.25 mg/mL; for Fraction converted to creatinine: aqueous media
Method: Creatinol-O-Phospate Solution: A batch of pure water or distilled water is put in a container, adjusted to a prescribed of pH 3 or pH 7 with a normal buffer and buffer salts, and heated to a temperature of 20° to 99° C. To 100 parts by weight of the warm water is added 0.1 to 0.3 parts by weight of the Creatinol-O-Phophate (COP) which is dissolved by stirring. The pH is not particularly limited but is desirably not higher than pH 12 taking the physiological influences of the gastrointestinal tracts into consideration.
They were stored at room temperature (25 C, 77 F), at refrigerator temperature (4 C, 39 F), and at elevated temperature (40 C, 104 F) in glass scintillation vials. These samples were assayed by HPLC at periodic intervals for 60 days and evaluated relative to Standard regression curves of known concentrations of the actives and of creatinine, the primary known degradation product of creatine.

[1] = prepared at pH 3.0, 25° C., 39 Days
[2] = prepared at pH 3.0, 25° C., 60 days
[3] = prepared at pH 3.0, 25° C., INITIAL
[4] = prepared at pH 3.0, 40° C., 39 Days
[5] = prepared at pH 3.0, 40° C., 60 days
[6] = prepared at pH 3.0, 40° C., INITIAL
[7] = prepared at pH 7.0, 40° C., 39 Days
[8] = prepared at pH 7.0, 40° C., 60 days
[9] = prepared at pH 7.0, 40° C., INITIAL

In the case of `CN(CCOP(=O)(O)O)C(=N)N` [Creatinol-O-Phosphate, Creatinol-O-phosphate], the “Stability by increase in creatinine levels over time (FIG. 1, in words)” value is reported as “stable and resistant to decomposition”, the “Stability in aqueous solution (in words)” value is reported as “stable” and the “Creatinine in solution (HPLC assay)” value (pH 3.0, 4° C., 39 Days) is reported as 0.00 mg/mL. The “Creatinine in solution (HPLC assay)” value (pH 3.0, 4° C., 3 day) was 0.0 mg/mL, the “Creatinine in solution (HPLC assay)” value (pH 3.0, 4° C., 10 days) was 0.0 mg/mL and the “Creatinine in solution (HPLC assay)” value (pH 3.0, 4° C., 21 days) was 0.0 mg/mL. For the same compound, the “Creatinine in solution (HPLC assay)” value (pH 3.0, 4° C., 60 days) was 0.00 mg/mL, the “Creatinine in solution (HPLC assay)” value (pH 3.0, 4° C., INITIAL) was 0.0 mg/mL and the “Creatinine in solution (HPLC assay)” value (pH 3.0, 25° C., 39 Days) was 0.00 mg/mL. For the same compound, the “Creatinine in solution (HPLC assay)” value (pH 3.0, 25° C., 3 day) was 0.0 mg/mL, the “Creatinine in solution (HPLC assay)” value (pH 3.0, 25° C., 10 days) was 0.0 mg/mL and the “Creatinine in solution (HPLC assay)” value (pH 3.0, 25° C., 21 days) was 0.0 mg/mL. For the same compound, the “Creatinine in solution (HPLC assay)” value (pH 3.0, 25° C., 60 days) was 0.00 mg/mL, the “Creatinine in solution (HPLC assay)” value (pH 3.0, 25° C., INITIAL) was 0.0 mg/mL and the “Creatinine in solution (HPLC assay)” value (pH 3.0, 40° C., 39 Days) was 0.00 mg/mL. For the same compound, the “Creatinine in solution (HPLC assay)” value (pH 3.0, 40° C., 3 day) was 0.0 mg/mL, the “Creatinine in solution (HPLC assay)” value (pH 3.0, 40° C., 10 days) was 0.0 mg/mL and the “Creatinine in solution (HPLC assay)” value (pH 3.0, 40° C., 21 days) was 0.0 mg/mL. The “Creatinine in solution (HPLC assay)” value (pH 3.0, 40° C., 60 days) was 0.00 mg/mL, the “Creatinine in solution (HPLC assay)” value (pH 3.0, 40° C., INITIAL) was 0.0 mg/mL and the “Creatinine in solution (HPLC assay)” value (pH 7.0, 4° C., 39 Days) was 0.00 mg/mL. The “Creatinine in solution (HPLC assay)” value (pH 7.0, 4° C., 3 day) was 0.0 mg/mL, the “Creatinine in solution (HPLC assay)” value (pH 7.0, 4° C., 10 days) was 0.0 mg/mL and the “Creatinine in solution (HPLC assay)” value (pH 7.0, 4° C., 21 days) was 0.0 mg/mL. The “Creatinine in solution (HPLC assay)” value (pH 7.0, 4° C., 60 days) was 0.00 mg/mL, the “Creatinine in solution (HPLC assay)” value (pH 7.0, 4° C., INITIAL) was 0.0 mg/mL and the “Creatinine in solution (HPLC assay)” value (pH 7.0, 25° C., 39 Days) was 0.00 mg/mL. The “Creatinine in solution (HPLC assay)” value (pH 7.0, 25° C., 3 day) was 0.0 mg/mL, the “Creatinine in solution (HPLC assay)” value (pH 7.0, 25° C., 10 days) was 0.0 mg/mL and the “Creatinine in solution (HPLC assay)” value (pH 7.0, 25° C., 21 days) was 0.0 mg/mL. The “Creatinine in solution (HPLC assay)” value (pH 7.0, 25° C., 60 days) was 0.00 mg/mL, the “Creatinine in solution (HPLC assay)” value (pH 7.0, 25° C., INITIAL) was 0.0 mg/mL and the “Creatinine in solution (HPLC assay)” value (pH 7.0, 40° C., 39 Days) was 0.00 mg/mL. For the same compound, the “Creatinine in solution (HPLC assay)” value (pH 7.0, 40° C., 3 day) was 0.0 mg/mL, the “Creatinine in solution (HPLC assay)” value (pH 7.0, 40° C., 10 days) was 0.0 mg/mL and the “Creatinine in solution (HPLC assay)” value (pH 7.0, 40° C., 21 days) was 0.0 mg/mL. For the same compound, the “Creatinine in solution (HPLC assay)” value (pH 7.0, 40° C., 60 days) was 0.00 mg/mL, the “Creatinine in solution (HPLC assay)” value (pH 7.0, 40° C., INITIAL) was 0.0 mg/mL and the “Prepared substance remaining in solution (HPLC assay)” value (pH 3) was 0.247 mg/ml mg/mL. For the same compound, the “Prepared substance remaining in solution (HPLC assay)” value (pH 7) was 0.226 mg/ml mg/mL, the “pH of the solution” value (prepared at pH 3.0, 4° C., 39 Days) was 3.1 and the “pH of the solution” value (prepared at pH 3.0, 4° C., 60 days) was 3.1. The “pH of the solution” value (prepared at pH 3.0, 4° C., INITIAL) was 3.0, the “pH of the solution” value [1] was 3.1 and the “pH of the solution” value [2] was 3.1. For the same compound, the “pH of the solution” value [3] was 3.0, the “pH of the solution” value [4] was 3.0 and the “pH of the solution” value [5] was 3.0. For the same compound, the “pH of the solution” value [6] was 3.0, the “pH of the solution” value (prepared at pH 7.0, 4° C., 39 Days) was 5.2 and the “pH of the solution” value (prepared at pH 7.0, 4° C., 60 days) was 5.2. For the same compound, the “pH of the solution” value (prepared at pH 7.0, 4° C., INITIAL) was 7.0, the “pH of the solution” value (prepared at pH 7.0, 25° C., 39 Days) was 5.3 and the “pH of the solution” value (prepared at pH 7.0, 25° C., 60 days) was 5.3. The “pH of the solution” value (prepared at pH 7.0, 25° C., INITIAL) was 7.0, the “pH of the solution” value [7] was 5.5 and the “pH of the solution” value [8] was 5.5. For the same compound, the “pH of the solution” value [9] was 7.0.
For `CN(CC(=O)O)C(=N)N.O` [Creatine Monohydrate, reference compound], the “Creatinine in solution (HPLC assay)” value (pH 3.0, 25° C., 39 Days) was 0.154 mg/mL, the “Creatinine in solution (HPLC assay)” value (pH 3.0, 25° C., 3 day) was 0.026 mg/mL and the “Creatinine in solution (HPLC assay)” value (pH 3.0, 25° C., 10 days) was 0.072 mg/ml mg/mL. For the same compound, the “Creatinine in solution (HPLC assay)” value (pH 3.0, 25° C., 21 days) was 0.111 mg/mL, the “Creatinine in solution (HPLC assay)” value (pH 3.0, 25° C., 60 days) was 0.167 mg/mL and the “Creatinine in solution (HPLC assay)” value (pH 3.0, 25° C., INITIAL) was 0.000 mg/mL. The “Creatinine in solution (HPLC assay)” value (pH 3.0, 40° C., 39 Days) was 0.186 mg/mL, the “Creatinine in solution (HPLC assay)” value (pH 3.0, 40° C., 3 day) was 0.125 mg/Ml mg/mL and the “Creatinine in solution (HPLC assay)” value (pH 3.0, 40° C., 10 days) was 0.177 mg/ml mg/mL. For the same compound, the “Creatinine in solution (HPLC assay)” value (pH 3.0, 40° C., 21 days) was 0.186 mg/mL, the “Creatinine in solution (HPLC assay)” value (pH 3.0, 40° C., 60 days) was 0.187 mg/mL and the “Creatinine in solution (HPLC assay)” value (pH 3.0, 40° C., INITIAL) was 0.000 mg/mL. For the same compound, the “Creatinine in solution (HPLC assay)” value (pH 7.0, 40° C., 39 Days) was 0.068 mg/mL, the “Creatinine in solution (HPLC assay)” value (pH 7.0, 40° C., 3 day) was 0.008 mg/mL and the “Creatinine in solution (HPLC assay)” value (pH 7.0, 40° C., 60 days) was 0.101 mg/mL. For the same compound, the “Creatinine in solution (HPLC assay)” value (pH 7.0, 40° C., INITIAL) was 0.000 mg/mL, the “Fraction converted to creatinine” value (39 days, pH 3.0, stored at 40° C.) was 74% and the “Fraction converted to creatinine” value (39 days, pH 7.0, stored at 40° C.) was 28%. For the same compound, the “Fraction converted to creatinine” value (pH 3.0, stored at 4° C.) was 62%, the “pH of the solution” value [1] was 3.4 and the “pH of the solution” value [2] was 3.4. The “pH of the solution” value [3] was 3.0, the “pH of the solution” value [4] was 3.4 and the “pH of the solution” value [5] was 3.4. The “pH of the solution” value [6] was 3.0, the “pH of the solution” value [7] was 7.4 and the “pH of the solution” value [8] was 7.4. For the same compound, the “pH of the solution” value [9] was 7.0.
